{"source": "patent US20260217701A1", "about": "“SELECTIVE BET INHIBITORS AND USES THEREOF” (Tay Therapeutics Limited, priority 2022, published 2026)", "experiment": "Dog PK study #3 (Compound A PO once daily 5 days, 5/10/20 mg/kg; PK, body weight, hematology)", "assay_type": "in vivo, beagle dogs", "parameters": "Plasma Concentration: unit not given here", "details": "for Neutrophils: range 1.80-10.83; for White Blood Cells: range 4.81-15.67; for Platelets: range 127-393; for Accumulative Index of AUC0-last (Day 5/Day 1) / Accumulative Index of Cmax (Day 5/Day 1): PO", "method": "For the third dog pharmacokinetic study, three solutions of different concentrations of Compound A were prepared in 5% DMSO/15% PEG-400/80% (10% VE-TPGS) as outlined in Table 2E. The Compound A solutions were administered to animals orally (PO) once daily over a five-day period. Body weight was recorded prior to dosing, and detailed clinical observations were made prior to dosing and throughout the study, as needed.\nAnimals were divided into Day 1 and Day 5 sample collection groups, with animals in the Day 1 collection group having blood samples taken prior to dosing and at 0.25, 0.5, 1, 2, 4, 8, and 24 hours after dosing on day 1. Animals in the Day 5 collection group having blood samples taken prior to dosing and at 0.25, 0.5, 1, 2, 4, 8, and 24 hours after dosing on day 5. Study groups are outlined in Table 3D.\nBlood samples (~0.3 mL) were collected on day according to the following schedule (0.25, 0.5, 1, 2, 4, 8, and 24 h) after day 5 administration of Compound A by venipuncture of peripheral veins except for the dosing vein, and EDTA-K2 was used as anticoagulant. Within 30 minutes of collection, the samples were centrifuged at approximately 2000 times g-force for 10 minutes at 4° C. to obtain blood plasma. The plasma samples were immediately divided into two aliquots (~75 μL each), transferred to a cryogenic vial, and stored in a freezer at −75±15° C. prior to analysis.\nThe concentration of Compound A in the blood plasma was determined through LC-MS as previously described. Briefly, the experiments were conducted on a DMPK-LCMS-14-SMBA Triple Quad 6500 Plus instrument with an ACQUITY UPLC BEH C18 1.7 μm (50×2.1 mm) column. The matrix was male beagle dog plasma potassium (K2) EDTA A gradient of 95% water (0.1% formic acid and 2 mM HCOONH4)/95% acetonitrile (0.1% formic acid and 2 mM HCOONH4) was used as the mobile phase. The sample flow rate was 0.6 mL/min.\nThe samples were then vortex-mixed for 10 minutes at 800 rpm and centrifuged for 15 minutes at 3220×g at 4° C. 50 μL aliquots of supernatant were transferred to a clean 96-well plate and centrifuged for 5 minutes at 3220×g at 4° C. Samples were then injected into the LC/MS/MS system for quantitative analysis.\nThe gathered data were used for pharmacokinetic calculations using T1/2, CO, AUClast, AUCinf, MRTinf, Cl, Vss, and Number of Points for Regression as parameters.\nThe cell composition (hematology) of blood samples was analyzed at day 5. Analyses identified the total number of white blood cells, neutrophils, lymphocytes, monocytes, eosinophils, basophils, and platelets in collected samples.", "key": {"[1]": {"details": "Day 5, 10 mg/kg dose PO, individual animals"}, "[2]": {"details": "Day 5, 20 mg/kg dose PO, individual animals"}, "[3]": {"details": "Day 5, Group 1, individual animals"}, "[4]": {"details": "Day 5, Group 2, individual animals"}, "[5]": {"details": "Day 5, Group 3, individual animals"}}, "note": "Values joined by “and” are separate entries in the source; they are usually repeats but may differ in a detail not shown here. Equal entries are not always repeated."}
{"smiles": "Cn1cc(-c2ccccc2)c(-c2cn(C)c(=O)c3[nH]c(-c4cnn(C(F)(F)F)c4)cc23)cc1=O", "note": "[Compound A, 6-methyl-4-(1-methyl-2-oxo-5-phenyl-1,2-dihydropyridin-4-yl)-2-(1-(trifluoromethyl)-1H-pyrazol-4-yl)-1,6-dihydro-7H-pyrrolo[2,3-c]pyridin-7-one]", "values": [{"measurement": "Neutrophils", "setting": "Day 5, 5 mg/kg/day (mean)", "value": "7.08 10^3/μL"}, {"measurement": "White Blood Cells", "setting": "Day 5, 5 mg/kg/day (mean)", "value": "10.59 103/μL"}, {"measurement": "Platelets", "setting": "Day 5, 5 mg/kg/day (mean)", "value": "224.0 10^3/μL"}, {"measurement": "Plasma Concentration", "setting": "Day 5, 10 mg/kg dose PO, time 1, individual animals", "value": "1610 and 2220"}, {"measurement": "Plasma Concentration", "setting": "Day 5, 10 mg/kg dose PO, time 1, mean", "value": 1915}, {"measurement": "Plasma Concentration", "setting": "Day 5, 10 mg/kg dose PO, time 2, individual animals", "value": "1740 and 2780"}, {"measurement": "Plasma Concentration", "setting": "Day 5, 10 mg/kg dose PO, time 2, mean", "value": 2260}, {"measurement": "Plasma Concentration", "setting": "Day 5, 10 mg/kg dose PO, time 4, individual animals", "value": "1460 and 2310"}, {"measurement": "Plasma Concentration", "setting": "Day 5, 10 mg/kg dose PO, time 4, mean", "value": 1885}, {"measurement": "Plasma Concentration", "setting": "Day 5, 10 mg/kg dose PO, time 8, individual animals", "value": "1190 and 1940"}, {"measurement": "Plasma Concentration", "setting": "Day 5, 10 mg/kg dose PO, time 8, mean", "value": 1565}, {"measurement": "AUC0-last", "setting": "[1]", "value": 36.083, "unit": "µg·h/mL"}, {"measurement": "AUC(0-inf)", "setting": "[1]", "value": 45.289, "unit": "µg·h/mL"}, {"measurement": "AUCExtra", "setting": "[1]", "value": "10.6% and 20.3%"}, {"measurement": "AUMCExtra", "setting": "[1]", "value": "32.6% and 51.3%"}, {"measurement": "Cl_F", "setting": "[1]", "value": "7.25 mL/min/kg and 3.68 mL/min/kg"}, {"measurement": "Cmax", "setting": "[1]", "value": 2780, "unit": "ng/mL"}, {"measurement": "MRT0-inf", "setting": "[1]", "value": 15.4, "unit": "h"}, {"measurement": "MRT0-last", "setting": "[1]", "value": 9.39, "unit": "h"}, {"measurement": "Tlast", "setting": "[1]", "value": 24.0, "unit": "h"}, {"measurement": "T½", "setting": "[1]", "value": 10.3, "unit": "h"}, {"measurement": "Vz_F", "setting": "[1]", "value": "4.58 L/kg and 3.27 L/kg"}, {"measurement": "AUC0-last", "setting": "Day 5, 10 mg/kg dose PO, mean", "value": 28.307, "unit": "µg·h/mL"}, {"measurement": "AUCExtra", "setting": "Day 5, 10 mg/kg dose PO, mean", "value": 15.5, "unit": "%"}, {"measurement": "AUMCExtra", "setting": "Day 5, 10 mg/kg dose PO, mean", "value": 42.0, "unit": "%"}, {"measurement": "Cl_F", "setting": "Day 5, 10 mg/kg dose PO, mean", "value": 5.47, "unit": "mL/min/kg"}, {"measurement": "Tlast", "setting": "Day 5, 10 mg/kg dose PO, mean", "value": 24.0, "unit": "h"}, {"measurement": "Vz_F", "setting": "Day 5, 10 mg/kg dose PO, mean", "value": 3.92, "unit": "L/kg"}, {"measurement": "Basophils", "setting": "Day 5, 10 mg/kg/day (mean), range 0.00-0.19", "value": "0.07 10^3/μL"}, {"measurement": "Eosinophils", "setting": "Day 5, 10 mg/kg/day (mean), range 0.00-1.24", "value": "0.40 10^3/μL"}, {"measurement": "Monocytes", "setting": "Day 5, 10 mg/kg/day (mean), range 0.11-1.08", "value": "0.48 10^3/μL"}, {"measurement": "Lymphocytes", "setting": "Day 5, 10 mg/kg/day (mean), range 1.42-3.76", "value": "3.31 10^3/μL"}, {"measurement": "Neutrophils", "setting": "Day 5, 10 mg/kg/day (mean)", "value": "6.59 10^3/μL"}, {"measurement": "White Blood Cells", "setting": "Day 5, 10 mg/kg/day (mean)", "value": "10.86 103/μL"}, {"measurement": "Platelets", "setting": "Day 5, 10 mg/kg/day (mean)", "value": "273.0 10^3/μL"}, {"measurement": "Plasma Concentration", "setting": "Day 5, 20 mg/kg dose PO, time 1, individual animals", "value": "3150 and 2130"}, {"measurement": "Plasma Concentration", "setting": "Day 5, 20 mg/kg dose PO, time 1, mean", "value": 2640}, {"measurement": "Plasma Concentration", "setting": "Day 5, 20 mg/kg dose PO, time 2, individual animals", "value": "3510 and 2220"}, {"measurement": "Plasma Concentration", "setting": "Day 5, 20 mg/kg dose PO, time 2, mean", "value": 2865}, {"measurement": "Plasma Concentration", "setting": "Day 5, 20 mg/kg dose PO, time 4, individual animals", "value": "3160 and 2040"}, {"measurement": "Plasma Concentration", "setting": "Day 5, 20 mg/kg dose PO, time 4, mean", "value": 2600}, {"measurement": "Plasma Concentration", "setting": "Day 5, 20 mg/kg dose PO, time 8, individual animals", "value": "2430 and 2170"}, {"measurement": "Plasma Concentration", "setting": "Day 5, 20 mg/kg dose PO, time 8, mean", "value": 2300}, {"measurement": "AUC0-last", "setting": "[2]", "value": "43.537 µg·h/mL and 16.801 µg·h/mL"}, {"measurement": "AUC(0-inf)", "setting": "[2]", "value": "49.399 µg·h/mL and 2087.5 µg·h/mL"}, {"measurement": "AUCExtra", "setting": "[2]", "value": "11.9% and 99.2%"}, {"measurement": "AUMCExtra", "setting": "[2]", "value": "35.5% and 100%"}, {"measurement": "Cl_F", "setting": "[2]", "value": "6.75 mL/min/kg and 0.160 mL/min/kg"}, {"measurement": "Cmax", "setting": "[2]", "value": 2220, "unit": "ng/mL"}, {"measurement": "MRT0-inf", "setting": "[2]", "value": "11.7 h and 955 h"}, {"measurement": "MRT0-last", "setting": "[2]", "value": "8.57 h and 4.03 h"}, {"measurement": "Tlast", "setting": "[2]", "value": "24.0 h and 8.00 h"}, {"measurement": "T½", "setting": "[2]", "value": 7.64, "unit": "h"}, {"measurement": "Vz_F", "setting": "[2]", "value": "4.46 L/kg and 9.29 L/kg"}, {"measurement": "AUC0-last", "setting": "Day 5, 20 mg/kg dose PO, mean", "value": 30.169, "unit": "µg·h/mL"}, {"measurement": "AUCExtra", "setting": "Day 5, 20 mg/kg dose PO, mean", "value": 55.6, "unit": "%"}, {"measurement": "AUMCExtra", "setting": "Day 5, 20 mg/kg dose PO, mean", "value": 67.8, "unit": "%"}, {"measurement": "Cl_F", "setting": "Day 5, 20 mg/kg dose PO, mean", "value": 3.45, "unit": "mL/min/kg"}, {"measurement": "Vz_F", "setting": "Day 5, 20 mg/kg dose PO, mean", "value": 6.87, "unit": "L/kg"}, {"measurement": "Animal body weight", "setting": "[3]", "value": "8.22 kg and 9.18 kg"}, {"measurement": "Clinical Observation", "setting": "[3]", "value": "None"}, {"measurement": "Animal Body Weight, Mean", "setting": "Day 5, Group 1, mean", "value": 8.70, "unit": "kg"}, {"measurement": "Animal body weight", "setting": "[4]", "value": "9.31 kg and 8.43 kg"}, {"measurement": "Clinical Observation", "setting": "[4]", "value": "None"}, {"measurement": "Animal Body Weight, Mean", "setting": "Day 5, Group 2, mean", "value": 8.87, "unit": "kg"}, {"measurement": "Animal body weight", "setting": "[5]", "value": "8.88 kg and 8.11 kg"}, {"measurement": "Clinical Observation", "setting": "[5]", "value": "None"}, {"measurement": "Animal Body Weight, Mean", "setting": "Day 5, Group 3, mean", "value": 8.50, "unit": "kg"}, {"measurement": "Accumulative Index of AUC0-last (Day 5/Day 1)", "setting": "dose level 5.00 mg/kg", "value": 1.53}, {"measurement": "Accumulative Index of Cmax (Day 5/Day 1)", "setting": "dose level 5.00 mg/kg", "value": 1.57}, {"measurement": "Accumulative Index of AUC0-last (Day 5/Day 1)", "setting": "dose level 10.0 mg/kg", "value": 1.62}, {"measurement": "Accumulative Index of Cmax (Day 5/Day 1)", "setting": "dose level 10.0 mg/kg", "value": 1.31}, {"measurement": "Accumulative Index of AUC0-last (Day 5/Day 1)", "setting": "dose level 20.0 mg/kg", "value": 0.445}, {"measurement": "Accumulative Index of Cmax (Day 5/Day 1)", "setting": "dose level 20.0 mg/kg", "value": 0.555}, {"measurement": "time plasma concentration remained above the free EC50 BD2", "setting": "all doses administered", "value": 24, "unit": "h"}, {"measurement": "white blood cell fraction parameters", "setting": "day 5", "value": "within range"}, {"measurement": "AUC(0-t)", "setting": "male, beagle, dog, plasma, po, 5 mg/kg, Day 1, 5 mg/kg dose PO, individual animals", "value": 11.6, "unit": "µg·h/mL"}]}
